# From patent US11827655B2, “Triplet-triplet annihilation upconversion system, and compositions and methods thereof for drug delivery” (University of Massachusetts, priority 2017, dated 2023)
# Assay: Entrapment efficiency by absorbance
# Format: physicochemical
# Conditions: sensitizer and emitter loading in TTA-MSNs
# Experimental: Next, TTA-MSNs were prepared dependence on the following steps. MSNs (50.0 mg) were dispersed 25 mL round flask in of BDP-F (2 mg), PEA (3 mg) and methyl oleate (150 mg) in THF (10 mL). The mixture solution was stirred until organic solvent evaporation (about 12 h) at room temperature in the dark condition. And then 10 mL PBS buffer was added. The mixture was ultrasonic shocked for 20 min. to make the nanoparticles dispersed in the PBS buffer. Then the BDP-F (sensitizer) and PEA (emitter)-loaded silica nanoparticles were low speed centrifuged (1000 rpm/min) for 5 min. The supernatant was collected and then extracted using dichloromethane (DCM). The DCM solvent containing BDP-F and PEA was used to measure sensitizer and emitter loading by collecting UV-vis absorption spectra using a molar absorption coefficient of 177500 M^−1 cm^−1 with)max=615 nm for BDP-F, 18000 M^−1cm^−1 with λmax=420 nm for PEA. Sensitizer and emitter loading were calculated using the following equation: Entrapment efficiency(%)=absorption of the loaded dye/absorption initial mass of the dye×100%.
# The precipitate sample was extracted with 10 mL DCM. And then absorbance of Cou-C was measured to calculate the entrapment efficiency. Entrapment efficiency(%)=1−absorption of the unloaded prodrug/initial mass of the prodrug×100%.
compound,measurement,value
"C(#Cc1c2ccccc2cc2ccccc12)c1ccccc1 [PEA, 9-phenylacetylene anthracene]",entrapment efficiency,72%
